From patent US6767991B1, “Hepatitis C inhibitor peptides” (priority 1997, dated 2004)
Where two headings read alike, the source gives them in different places. *1 amine or outer side, *2 acyl side, *3 side chain or, on linkers, in order; H or OH if unused. Where a SMILES comes first, the peptide text is derived from it. Where no end group is shown, it is not given here. [ ]: non-standard residue; d: D form. The star is where a group is joined. Acca(2-Et,1R,2R) = CC[C@@H]1C[C@]1(N)C(=O)O; CH2(1-naphthyl) = c1ccc2c(C*)cccc2c1; Hyp = O=C(O)[C@@H]1C[C@@H](O)CN1; Chg = N[C@H](C(=O)O)C1CCCCC1; Suc = O=C(CCC(=O)[*:2])[*:1]; Tle = CC(C)(C)[C@H](N)C(=O)O; X5 = CC(C)(C)c1ccc(C*)cc1; Ac5c = NC1(C(=O)O)CCCC1; Nva = CCC[C@H](N)C(=O)O; Ac3c = NC1(C(=O)O)CC1; Boc = CC(C)(C)OC(=O)*; X3 = CC(=O)OCC(=O)*; Bn = c1ccc(C*)cc1

Assays:
[1] = molecular target: T1, recombinant HCV NS3 protease type 1b (Hepatitis C virus genotype 1b, UniProt P26663); experiment: Recombinant HCV NS3 protease radiometric assay; format: biochemical, HCV genotype 1b
T1 construct: recombinant HCV NS3 protease (amino acid 1027 to 1206) was cloned in the pET11d bacterial expression vector; made in house; host or cells: E. coli BL21(DE3)pLysS
Text: Cloning, Expression and Purification of the Recombinant HCV NS3 Protease type 1b.
Serum from an HCV-infected patient was obtained through an external collaboration (Bernard Willems MD, Hôpital St-Luc. Montréal. Canada and Dr. Donald Murphy, Laboratoire de Santé Publique du Québec, Ste-Anne de Bellevue, Canada). An engineered full-length cDNA template of the HCV genome was constructed from DNA fragments obtained by reverse transcription-PCR (RT-PCR) of serum RNA and using specific primers selected on the basis of homology between other genotype 1b strains. From the determination of the entire genomic sequence, a genotype 1b was assigned to the HCV isolate according to the classification of Simmonds et al. (J. Clin. Microbiol., (1993), 31, p.1493-1503). […] A DNA fragment encoding the polyprotein precursor (NS3/NS4A/NS4B/NS5A/NS5B) was generated by PCR and introduced into eukaryotic expression vectors. […] The mature NS3 protein was not observed with expression of a polyprotein precursor containing the mutation S1165A, which inactivates the NS3 protease, confirming the functionality of the HCV NS3 protease.
The DNA fragment encoding the recombinant HCV NS3 protease (amino acid 1027 to 1206) was cloned in the pET11d bacterial expression vector. The NS3 protease expression in E. coli BL21(DE3)pLysS was induced by incubation with 1 mM IPTG for 3 h at 22° C. A typical fermentation (18 L) yielded approximately 100 g of wet cell paste. The cells were resuspended in lysis buffer (3.0 mL/g) consisting of 25 mM sodium phosphate, pH 7.5, 10% glycerol (v/v), 1 mM EDTA, 0.01% NP-40 and stored at −80° C. Cells were thawed and homogenized following the addition of 5 mM DTT. Magnesium chloride and DNase were then added to the homogenate at final concentrations of 20 mM and 20 μg/mL respectively. After a 25 min incubation at 4° C., the homogenate was sonicated and centrifuged at 15000×g for 30 min at 4° C. The pH of the supernatant was then adjusted to 6.5 using a 1 M sodium phosphate solution.
An additional gel filtration chromatography step was added to the 2 step purification procedure described in WO 95/22985 (incorporated herein by reference). Briefly, the supernatant from the bacterial extract was loaded on a SP HiTrap column (Pharmacia) previously equilibrated at a flow rate of 2 mL/min in buffer A (50 mM sodium phosphate. pH 6.5, […], 1 mM EDTA, 5 mM DTT, 0.01% NP-40). The column was then washed with buffer A containing 0.15 M NaCl and the protease eluted by applying 10 column volumes of a linear 0.15 to 0.3 M NaCl gradient. NS3 protease-containing fractions were pooled and diluted to a final NaCl concentration of 0.1 M. The enzyme was further purified on a HiTrap Heparin column (Pharmacia) equilibrated in buffer B (25 mM sodium phosphate, pH 7.5, 10% glycerol, 5 mM DTT, 0.01% NP-40). The sample was loaded at a flow rate of 3 mL/min. The column was then washed with buffer B containing 0.15 M NaCl at a flow rate of 1.5 mL/min. Two step washes were performed in the presence of buffer B containing 0.3 or 1 M NaCl. The protease was recovered in the 0.3M NaCl wash, diluted 3-fold with buffer B, reapplied on the HiTrap Heparin column and eluted with buffer B containing 0.4 M NaCl. Finally, the NS3 protease-containing fractions were applied on a Superdex 75 HiLoad 16/60 column (Pharmacia) equilibrated in buffer B containing 0.3 M NaCl. The purity of the HCV NS3 protease obtained from the pooled tractions was judged to be greater than 95% by SDS-PAGE followed by densitometry analysis.
The enzyme was stored at −80° C. and was thawed on ice and diluted just prior to use.
Recombinant HCV NS3 Protease Radiometric Assay
The substrate used for the HCV NS3 protease radiometric assay, DDIVPC-SMSYTW [SEQ. ID NO. 2], is cleaved between the cysteine and the serine residues by the enzyme. The sequence DDIVPC-SMSYTW [SEQ. ID NO. 2] corresponds to the NS5A/NS5B natural cleavage site in which the cysteine residue in P2 has been substituted for a proline. […]

[2] = molecular target: T2, HCV NS3 protease type 1b/NS4A cofactor peptide (Hepatitis C virus genotype 1b, UniProt P26663); experiment: Recombinant HCV NS3 protease/NS4A cofactor peptide radiometric assay; format: biochemical, HCV genotype 1b; conditions: read-out: IC50
T2 construct: recombinant HCV NS3 protease (amino acid 1027 to 1206) was cloned in the pET11d bacterial expression vector; made in house; host or cells: E. coli BL21(DE3)pLysS
Description: Recombinant HCV NS3 Protease/NS4A Cofactor Peptide Radiometric Assay.
The enzyme was stored at −80° C., thawed on ice and diluted just prior to use in the assay buffer containing the NS4A cofactor peptide.
The substrate used for the NS3 protease/NS4A cofactor peptide radiometric assay, DDIVPC-SMSYTW [SEQ. ID NO. 2], is cleaved between the cysteine and the serine residues by the enzyme. The sequence DDIVPC-SMSYTW [SEQ. ID NO. 2] corresponds to the NS5A/NS5B natural cleavage site in which the cysteine residue in P2 has been substituted for a proline. The peptide substrate DDIVPC-SMSYTW [SEQ. ID NO. […] ID NO. […] [SEQ. ID NO. 5] (molar ratio enzyme: cofactor 1:100) in the absence or presence of inhibitors. The separation of substrate from products is performed by adding avidin-coated agarose beads to the assay mixture followed by filtration. […] ID NO. 4] product found in the filtrate allows for the calculation of the percentage of substrate conversion and of the percentage of inhibition.
Tris and Tris-HCl (UltraPure) were obtained from Gibco-BRL. Glycerol (UltraPure), MES and BSA were purchased from Sigma. TCEP was obtained from Pierce, DMSO from Aldrich and NaOH from Anachemia.
Assay buffer: 50 mM Tris HCl, pH 7.5, 30% (w/v) glycerol, 1 mg/mL BSA, 1 mM TCEP (TCEP added just prior to use from a 1 M stock solution in water).
Substrate: […] [SEQ. ID NO.
ID NO. 3] (˜1 nM final concentration).
The assay was performed in a 96-well polypropylene plate from Costar. Each well contained:
20 μL substrate/tracer in assay buffer;
10 μL±inhibitor in 20% DMSO/assay buffer;
10 μL NS3 protease 1b/NS4 cofactor peptide (molar ratio 1:100).
Blank (no inhibitor and no enzyme) and control (no inhibitor) were also prepared on the same assay plate.
The enzymatic reaction was initiated by the addition of the enzyme/NS4A peptide solution and the assay mixture was incubated for 40 min at 23° C. under gentle agitation. Ten (10) μL of 0.5N NaOH were added and 10 μL 1 M MES, pH 5.8 were added to quench the enzymatic reaction.
Twenty (20) μL of avidin-coated agarose beads (purchased from Pierce) were added in a Millipore MADP N65 filtration plate. The quenched assay mixture was transferred to the filtration plate, and incubated for 60 min at 23° C. under gentle agitation.
The plates were filtered using a Millipore MultiScreen Vacuum Manifold Filtration apparatus, and 40 μL of the filtrate was transferred in an opaque 96-well plate containing 60 μL of scintillation fluid per well.
The % inhibition was calculated with the following equation:
100-[(countsinh-countsblank)/(countsctl-countsblank)×100]

[3] = Table 1, unmarked values: NS3 protease/NS4A cofactor peptide radiometric assay
[4] = Table 2, unmarked values: NS3 protease/NS4A cofactor peptide radiometric assay

T1 sequence (P26663 1027-1206): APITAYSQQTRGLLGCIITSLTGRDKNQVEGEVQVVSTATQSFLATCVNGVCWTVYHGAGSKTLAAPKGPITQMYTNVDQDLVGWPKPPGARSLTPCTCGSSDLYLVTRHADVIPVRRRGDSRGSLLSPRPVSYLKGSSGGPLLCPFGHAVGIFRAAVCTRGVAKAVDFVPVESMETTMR
T2 sequence (P26663 1027-1206, other chains not shown): as the sequence (P26663 1027-1206) above

Molecule	IC50 [2, 3] [µM]	IC50 [2, 4] [µM]	further results
Ac-DDIIPC [compound 113]			IC50 [1]: 56 µM
Ac-DDIVLC [compound 116]			IC50 [1]: 16 µM
Ac-DDIVFC [compound 117]			IC50 [1]: 25 µM
CCC[C@H](NC(=O)[C@@H]1CCCN1C(=O)[C@@H](NC(=O)[C@@H](NC(=O)[C@H](CC(=O)O)NC(=O)CCC(=O)O)[C@@H](C)CC)C(C)C)C(=O)O [compound 130] (Suc-DIVP[Nva]-OH)	123		
CC(=O)N[C@H](C(=O)N[C@H](C(=O)N1C[C@H](Oc2ccccc2Br)C[C@H]1C(=O)NC1(C(=O)O)CC1)C(C)C)C1CCCCC1 [compound 239]		27	
CCC[C@H](NC(=O)[C@@H]1CCCN1C(=O)[C@@H](NC(=O)[C@@H](NC(=O)[C@@H](CCC(=O)O)NC(=O)[C@H](CC(=O)O)NC(C)=O)[C@@H](C)CC)C(C)C)C(=O)O [compound 128] (Ac-D[dE]IVP[Nva]-OH)	7.4		
CCC[C@H](NC(=O)[C@@H]1C[C@@H](OCc2ccc(C(C)(C)C)cc2)CN1C(=O)[C@@H](NC(=O)[C@@H](NC(=O)[C@H](CC(=O)O)NC(=O)[C@H](CC(=O)O)NC(C)=O)[C@@H](C)CC)C(C)C)C(=O)O [compound 209] (Ac-DDIV[Hyp](X5)[Nva]-OH)		2.6	
CC(=O)OCC(=O)N[C@H](C(=O)N[C@H](C(=O)N1C[C@H](OCc2cccc3ccccc23)C[C@H]1C(=O)NC1(C(=O)O)CC1)C1CCCCC1)C1CCCCC1 [compound 232] (X3-[Chg][Chg][Hyp](CH2(1-naphthyl))[Ac3c]-OH)		1.4	
CC(=O)N[C@@H](CC(=O)O)C(=O)N[C@@H](CCC(=O)O)C(=O)N[C@H](C(=O)N[C@@H](CCC(=O)O)C(=O)N[C@@H](CCC(=O)O)C(=O)N[C@@H](CS)C(=O)O)C1CCCCC1 [compound 131] (Ac-DE[Chg]EEC-OH)	24		
CC[C@H](C)[C@H](NC(=O)[C@H](CC(=O)O)NC(=O)[C@H](CC(=O)O)NC(C)=O)C(=O)N[C@H](C(=O)N1CCC[C@H]1C(=O)NC1(C(=O)O)CC1)C(C)C [compound 126] (Ac-DDIVP[Ac3c]-OH)	45		
CC(=O)N[C@H](C(=O)N[C@H](C(=O)N1C[C@H](OCc2ccccc2)C[C@H]1C(=O)N[C@@H](CS)C(=O)O)C(C)C)C1CCCCC1 [compound 261] (Ac-[Chg]V[Hyp](Bn)C-OH)		28	
CC(=O)N[C@@H](CC(=O)O)C(=O)N[C@H](CCC(=O)O)C(=O)N[C@H](C(=O)N[C@@H](CCC(=O)O)C(=O)N[C@@H](CCC(=O)O)C(=O)NC1(C(=O)O)CC1)C1CCCCC1 [compound 132] (Ac-D[dE][Chg]EE[Ac3c]-OH)	36		
CC[C@H](C)[C@H](NC(=O)[C@@H](CC(=O)O)NC(=O)[C@H](CC(=O)O)NC(C)=O)C(=O)N[C@H](C(=O)N1CCC[C@H]1C(=O)N[C@@H](CS)C(=O)O)C(C)C [compound 104] (Ac-D[dD]IVPC-OH)	8.5		
CC[C@H](C)[C@H](NC(=O)[C@H](CC(=O)O)NC(=O)[C@H](CC(=O)O)NC(C)=O)C(=O)N[C@H](C(=O)N1CCC[C@H]1C(=O)NC1(C(=O)O)CCCC1)C(C)C [compound 125] (Ac-DDIVP[Ac5c]-OH)	210		
CC[C@H](C)[C@H](NC(=O)[C@@H](NC(=O)[C@H](CC(=O)O)NC(C)=O)C(C)(C)C)C(=O)N[C@H](C(=O)N1CCC[C@H]1C(=O)N[C@@H](CS)C(=O)O)C(C)C [compound 108] (Ac-D[Tle]IVPC-OH)	31		
CC[C@H](C)[C@H](NC(=O)[C@@H](CCC(=O)O)NC(=O)[C@H](CC(=O)O)NC(C)=O)C(=O)N[C@H](C(=O)N1CCC[C@H]1C(=O)N[C@@H](CS)C(=O)O)C(C)C [compound 105] (Ac-D[dE]IVPC-OH)	1.5		
CCC[C@H](NC(=O)[C@@H]1CCCN1C(=O)[C@@H](NC(=O)[C@@H](NC(=O)[C@H](CC(=O)O)NC(=O)[C@H](CC(=O)O)NC(C)=O)[C@@H](C)CC)C(C)C)C(=O)O (single isomer, unassigned) [compound 273]		17.5	
CC(C)(C)OC(=O)N[C@H](C(=O)N[C@H](C(=O)N1C[C@H](OCc2cccc3ccccc23)C[C@H]1C(=O)NC1(C(=O)O)CC1)C1CCCCC1)C1CCCCC1 [compound 235] (Boc-[Chg][Chg][Hyp](CH2(1-naphthyl))[Ac3c]-OH)		12	
CCC[C@H](NC(=O)[C@@H]1C[C@@H](OCc2cccc3ccccc23)CN1C(=O)[C@@H](NC(=O)[C@@H](NC(=O)CCC(=O)O)[C@@H](C)CC)C(C)C)C(=O)O [compound 221] (Suc-IV[Hyp](CH2(1-naphthyl))[Nva]-OH)		22	
CC[C@@H]1C[C@]1(NC(=O)[C@@H]1C[C@@H](OCc2ccccc2)CN1C(=O)[C@@H](NC(=O)[C@@H](NC(=O)[C@@H](CCC(=O)O)NC(=O)[C@H](CC(=O)O)NC(C)=O)[C@@H](C)CC)C(C)C)C(=O)O [compound 517] (Ac-D[dE]IV[Hyp](Bn)[Acca(2-Et,1R,2R)]-OH)			IC50 ([2]; Table 5, first line of the cell, NS3 protease/NS4A cofactor peptide radiometric assay (Example 38)): 0.075 µM
CCC[C@H](NC(=O)[C@@H]1C[C@@H](OCc2cccc3ccccc23)CN1C(=O)[C@@H](NC(=O)[C@@H](NC(=O)[C@H](CC(=O)O)NC(=O)[C@H](CC(=O)O)NC(C)=O)[C@@H](C)CC)C(C)C)C(=O)O [compound 207] (Ac-DDIV[Hyp](CH2(1-naphthyl))[Nva]-OH)		0.39	
